Test results published in patent US6737383B1, “Herbicidal oxadiazolidines” (priority 1999, dated 2004).

Tests used:
[1] = system: velvetleaf; test: Test B pre/postemergence velvetleaf; format: in vivo, Abutilon theophrasti
How it was run: (§1)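 Test chemicals in a non-phytotoxic solvent mixture with surfactant were sprayed preemergence onto planted seeds and postemergence onto plants 2 to 18 cm tall (1- to 4-leaf stage). After twelve to sixteen days in a greenhouse, injury was visually rated against untreated controls from 0 (no effect) to 10 (complete control).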

[2] = system: bamyardgrass; test: Test B flood test barnyardgrass; format: in vivo, Echinochloa crus-galli
How it was run: (§2)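 Plants were grown to the 2-leaf stage before treatment with test chemical, then held in a greenhouse for twelve to sixteen days. Injury was visually rated against untreated controls on a 0–10 scale, where 0 is no effect and 10 is complete control.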

[3] = system: cocklebur; test: Test B pre/postemergence cocklebur; format: in vivo, Xanthium strumarium
How it was run: as §1

[4] = system: bedstraw; test: Test B pre/postemergence bedstraw; format: in vivo, Galium aparine
How it was run: as §1

[5] = system: surinam grass; test: Test B pre/postemergence surinam grass; format: in vivo, Brachiaria decumbens
How it was run: as §1

[6] = system: crabgrass; test: Test B pre/postemergence crabgrass; format: in vivo, Digitaria sanguinalis
How it was run: as §1

[7] = system: rice; test: Test B flood test rice; format: in vivo, Oryza sativa
How it was run: as §2

[8] = system: giant foxtail; test: Test B pre/postemergence giant foxtail; format: in vivo, Setaria faberii
How it was run: as §1

[9] = system: pigweed; test: Test B pre/postemergence pigweed; format: in vivo, Amaranthus retroflexus
How it was run: as §1

[10] = system: wild oat; test: Test B pre/postemergence wild oat; format: in vivo, Avena fatua
How it was run: as §1

[11] = system: smallflower flatsedge; test: Test B flood test smallflower flatsedge; format: in vivo, Cyperus difformis
How it was run: as §2

[12] = system: sugar beet; test: Test B pre/postemergence sugar beet; format: in vivo, Beta vulgaris
How it was run: as §1

[13] = system: soybean; test: Test B pre/postemergence soybean; format: in vivo, Glycine max
How it was run: as §1

[14] = system: blackgrass; test: Test B pre/postemergence blackgrass; format: in vivo, Alopecurus myosuroides
How it was run: as §1

[15] = system: purple nutsedge; test: Test B pre/postemergence purple nutsedge; format: in vivo, Cyperus rotundus
How it was run: as §1

[16] = system: wheat; test: Test B pre/postemergence wheat; format: in vivo, Triticum aestivum
How it was run: as §1

[17] = system: rape; test: Test B pre/postemergence rape; format: in vivo, Brassica napus
How it was run: as §1

[18] = system: morningglory; test: Test B pre/postemergence morningglory; format: in vivo, Ipomoea hederacea
How it was run: as §1

[19] = system: corn; test: Test B pre/postemergence corn; format: in vivo, Zea mays
How it was run: as §1

[20] = system: duck salad; test: Test B flood test duck salad; format: in vivo, Heteranthera limosa
How it was run: as §2

[21] = Postemergence, Rate 62 g/ha, scale 0 to 10, 0 is no effect, 10 is complete control
[22] = Postemergence, Rate 125 g/ha, scale of 0 to 10 where 0 is no effect and 10 is complete control
[23] = Postemergence, Rate 250 g/ha, scale of 0 to 10, 0 is no effect, 10 is complete control
[24] = Postemergence, Rate 500 g/ha, scale of 0 to 10 where 0 is no effect and 10 is complete control
[25] = Preemergence, Rate 62 g/ha, scale 0 to 10 (0 no effect, 10 complete control)
[26] = Preemergence, Rate 125 g/ha, scale of 0 to 10 where 0 is no effect and 10 is complete control
[27] = Preemergence, Rate 500 g/ha, scale of 0 to 10 where 0 is no effect and 10 is complete control
[28] = Rate 62 g/ha, flood test species, Pre-emergence, visual evaluation after twelve to sixteen days
[29] = Rate 125 g/ha, under heading Pre-emergence, flood test species, visual evaluation after twelve to sixteen days
[30] = Rate 250 g/ha, Pre-emergence (flood test species), scale 0 to 10, 0 is no effect, 10 is complete control
[31] = Rate 500 g/ha, Pre-emergence section of Table B, 0 to 10 scale (0 no effect, 10 complete control)

C=C(Cn1c(=O)on(C(=O)N(c2ccccc2)C(C)C)c1=O)c1cccc(Cl)n1 [Compound 605]
3: Plant response rating, Crabgrass [6, 24] | Crabgrass plant response rating [6, 26] | Soybean plant response rating [13, 23]
6: Plant response rating, Morningglory [18, 22]
5: Plant response rating, Soybean [13, 24]
9: Morningglory plant response rating [18, 23]
2: Plant response rating, Giant foxtail [8, 24] | Giant foxtail plant response rating [8, 25] | Plant response rating, Wild oats [10, 21] | Plant response rating, Wild oats [10, 24] | Plant response rating, Soybean [13, 21] | Plant response rating, Soybean [13, 22] | Plant response rating, Wheat [16, 24]
1: Crabgrass plant response rating [6, 23] | Plant response rating, Wild oats [10, 22] | Wild oats plant response rating [10, 23] | Plant response rating, Wheat [16, 21] | Plant response rating, Wheat [16, 22] | Wheat plant response rating [16, 23]
0: Plant response rating, Velvetleaf [1, 21] | Plant response rating, Velvetleaf [1, 22] | Velvetleaf plant response rating [1, 23] | Plant response rating, Velvetleaf [1, 24] | Velvetleaf plant response rating [1, 25] | Velvetleaf plant response rating [1, 26] | Plant response rating, Velvetleaf [1, 27] | Plant response rating, Barnyardgrass (0 to 10 scale, 0 is no effect, 10 is complete control) [2, 28] | Barnyardgrass plant response rating (0 to 10 scale, 0 is no effect, 10 is complete control) [2, 29] | Barnyardgrass plant response rating [2, 30] | Barnyardgrass plant response rating [2, 31] | Plant response rating, Cocklebur [3, 21] | Plant response rating, Cocklebur [3, 22] | Cocklebur plant response rating [3, 23] | Plant response rating, Cocklebur [3, 24] | Cocklebur plant response rating [3, 25] | Cocklebur plant response rating [3, 26] | Cocklebur plant response rating (0 to 10 scale) ([3]; Preemergence, Rate 250 g/ha) | Plant response rating, Cocklebur [3, 27] | Plant response rating, Bedstraw [4, 21] | Bedstraw plant response rating [4, 25] | Bedstraw plant response rating [4, 26] | Bedstraw plant response rating (0 to 10 scale) ([4]; Preemergence, Rate 250 g/ha) | Bedstraw plant response rating [4, 27] | Plant response rating, B. signalgrass [5, 21] | Plant response rating, B. signalgrass [5, 22] | B. signalgrass plant response rating [5, 23] | Plant response rating, B. signalgrass [5, 24] | B. signalgrass plant response rating [5, 25] | B. signalgrass plant response rating [5, 26] | B. signalgrass plant response rating (0 to 10 scale, 0 is no effect, 10 is complete control) ([5]; Preemergence, Rate 250 g/ha) | B. signalgrass plant response rating [5, 27] | Plant response rating, Crabgrass [6, 21] | Plant response rating, Crabgrass [6, 22] | Crabgrass plant response rating [6, 25] | Plant response rating, Rice (0 to 10 scale, 0 is no effect, 10 is complete control) [7, 28] | Rice plant response rating (0 to 10 scale, 0 is no effect, 10 is complete control) [7, 29] | Rice plant response rating [7, 30] | Rice plant response rating [7, 31] | Plant response rating, Giant foxtail [8, 21] | Plant response rating, Giant foxtail [8, 22] | Giant foxtail plant response rating [8, 23] | Plant response rating, Redroot pigweed [9, 21] | Plant response rating, Redroot pigweed [9, 22] | Redroot pigweed plant response rating [9, 23] | Plant response rating, Redroot pigweed [9, 24] | Redroot pigweed plant response rating [9, 25] | Redroot pigweed plant response rating [9, 26] | Plant response rating, Redroot pigweed [9, 27] | Wild oats plant response rating [10, 25] | Wild oats plant response rating [10, 26] | Plant response rating, Wild oats [10, 27] | Plant response rating, S. Flatsedge (0 to 10 scale, 0 is no effect, 10 is complete control) [11, 28] | S. Flatsedge plant response rating (0 to 10 scale, 0 is no effect, 10 is complete control) [11, 29] | S. Flatsedge plant response rating [11, 30] | S. Flatsedge plant response rating [11, 31] | Plant response rating, Sugarbeets [12, 21] | Plant response rating, Sugarbeets [12, 22] | Sugarbeets plant response rating [12, 23] | Plant response rating, Sugarbeets [12, 24] | Sugarbeets plant response rating [12, 25] | Sugarbeets plant response rating [12, 26] | Plant response rating, Sugarbeets [12, 27] | Soybean plant response rating [13, 25] | Soybean plant response rating [13, 26] | Plant response rating, Soybean [13, 27] | Plant response rating, Blackgrass [14, 21] | Plant response rating, Blackgrass [14, 22] | Blackgrass plant response rating [14, 23] | Plant response rating, Blackgrass [14, 24] | Blackgrass plant response rating [14, 25] | Blackgrass plant response rating [14, 26] | Blackgrass plant response rating (0 to 10 scale) ([14]; Preemergence, Rate 250 g/ha) | Blackgrass plant response rating [14, 27] | Plant response rating, Nutsedge [15, 21] | Plant response rating, Nutsedge [15, 22] | Nutsedge plant response rating [15, 23] | Plant response rating, Nutsedge [15, 24] | Nutsedge plant response rating [15, 25] | Nutsedge plant response rating [15, 26] | Plant response rating, Nutsedge [15, 27] | Wheat plant response rating [16, 25] | Wheat plant response rating [16, 26] | Plant response rating, Wheat [16, 27] | Plant response rating, Rape [17, 21] | Plant response rating, Rape [17, 22] | Rape plant response rating [17, 23] | Plant response rating, Rape [17, 24] | Rape plant response rating [17, 25] | Rape plant response rating [17, 26] | Plant response rating, Rape [17, 27] | Morningglory plant response rating [18, 25] | Morningglory plant response rating [18, 26] | Plant response rating, Corn [19, 21] | Plant response rating, Corn [19, 22] | Corn plant response rating [19, 23] | Plant response rating, Corn [19, 24] | Corn plant response rating [19, 25] | Corn plant response rating [19, 26] | Corn plant response rating (0 to 10 scale) ([19]; Preemergence, Rate 250 g/ha) | Plant response rating, Corn [19, 27] | Plant response rating, Ducksalad (0 to 10 scale, 0 is no effect, 10 is complete control) [20, 28] | Ducksalad plant response rating (0 to 10 scale, 0 is no effect, 10 is complete control) [20, 29] | Ducksalad plant response rating [20, 30] | Ducksalad plant response rating [20, 31]
10: Plant response rating, Crabgrass [6, 27] | Giant foxtail plant response rating [8, 26] | Plant response rating, Giant foxtail [8, 27] | Plant response rating, Morningglory [18, 24]
